Assay results published in ChEMBL document CHEMBL5728544, “Compounds and methods for the targeted degradation of interleukin-1 receptor- associated kinase 4 polypeptides” (2021).

Target: T1, Interleukin-1 receptor-associated kinase 4 (Homo sapiens, UniProt Q9NWZ3)
T1 sequence (Q9NWZ3 whole entry): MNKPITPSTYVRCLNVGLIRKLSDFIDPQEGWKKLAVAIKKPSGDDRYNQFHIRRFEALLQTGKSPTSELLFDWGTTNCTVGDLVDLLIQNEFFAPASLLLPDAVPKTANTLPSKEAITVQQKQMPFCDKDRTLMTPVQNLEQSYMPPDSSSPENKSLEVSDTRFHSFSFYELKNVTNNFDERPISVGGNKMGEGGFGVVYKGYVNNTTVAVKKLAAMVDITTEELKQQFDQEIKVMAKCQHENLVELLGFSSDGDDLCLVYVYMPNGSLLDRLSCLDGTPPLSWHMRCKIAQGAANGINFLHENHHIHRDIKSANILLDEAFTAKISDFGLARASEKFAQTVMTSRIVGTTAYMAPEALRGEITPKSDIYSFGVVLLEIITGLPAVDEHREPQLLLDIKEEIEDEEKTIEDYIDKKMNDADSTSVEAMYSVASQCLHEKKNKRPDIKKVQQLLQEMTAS
Experiment: Biochemical Assay: A Z′-Lyte assay based on a fluorescence resonance energy transfer (FRET) readout was developed for measuring IRAK4-dependent phosphorylation of a FRET-peptide substrate as described by Thermo Fisher Scientific (Grand Island, N.Y.). At a starting concentration of 1.5 mM, the identified compounds were serially diluted with 100% dimethyl sulfoxide (DMSO) in 3-fold increments, into Greiner bio-one 96-well plates (cat. #: 650201, Greiner bio-one, Monroe, N.C.). Compounds were then transferred to intermediate Greiner bio-one 96-well plates and diluted 10-fold with Kinase assay buffer (25 mM HEPES, pH 7.5, 10 mM MgCl2, 10 mM MnCl2, 1 mM EGTA, and 0.01% Brij-35, 2 mM DTT). Three μL of the serially diluted compounds were then transferred in duplicate to low-volume 384-well black proxiplates (cat. #: 6008269; Perkin Elmer, Akron, Ohio), to give duplicate twelve-point concentration curves. Six μl of a 2.5× solution of IRAK4 enzyme (cat #: 40064, BPS Bioscience, San Diego, Calif.) in kinase buffer was added to each well, followed by a 10 minutes pre-incubation step. Reactions were initiated by adding 6 μl of a 2.5× substrate mix of ATP and Z′-Lyte Ser/Thr 7 peptide (cat. #: PV3180, Thermo Fisher Scientific, Grand Island, N.Y.) and proceeded at room temperature for 1 hour. […]

IC50: < 0.03 µM
SMILES: O=C1CCC(N2C(=O)c3ccc(OC4CCC(CN5CCN(Cc6ccc7c(c6)nc(NC(=O)c6cccc(C(F)(F)F)c6)n7C6CCC(CO)CC6)CC5)CC4)cc3C2=O)C(=O)N1 (stereo unspecified)
